The results in this text go back to US20220304356A1, “FUNCTIONAL FOOD COMPOSITIONS AND COSMETIC COMPOSITIONS COMPRISING GALACTO-OLIGOSACCHARIDES, OR GALACTOOLIGOSACCHARIDES AND COLLAGEN TRIPEPTIDE FOR IMPROVING IMMUNE FUNCTIONS AND SKIN CONDITION” (NEO CREMAR CO., LTD., priority 2020, published 2022).

What all share (assay type): in vivo, SKH-1 hairless mice
The subject of one assay is MMP2. As to the kind of experiment: qRT-PCR of skin tissue, MMP 2. The conditions noted are these: compared with CON. How it is done:
(§1) In order to investigate the effects of the compositions of the present disclosure on the expression of skin condition-related genes, the present inventors measured the expression levels of collagen type I, matrix metalloproteinase (MMP) 2/3/9, TIMP1/2, hyaluronidase (HYAL), and NF-K in comparison with GAPDH.
(§2) Specifically, about 100 mg of the skin tissue was collected from each mouse of the experimental groups administered the compositions of the present disclosure, and total RNA was isolated using TRIzol reagent. To the isolated RNA was added 50 μM Oligo-(dT) primer and 10 mM dNTP mix, followed by reaction at […] for 5 minutes, and then 5×RT Buffer, 0.1 M DTT, RNaseOUT, SuperScript III, and 25 mM MgCl2 were added with mixing, followed by reaction under conditions of 50° C. for 50 minutes and 85° C. for 5 minutes. RNase H was added and incubated at 37° C. for 20 minutes, thereby synthesizing cDNA from mRNA. To perform POR, 1 μL of the synthesized cDNA was mixed with primers, SYBR green gene expression master mix, and DEPO water, followed by qPCR. The expression level of each target gene was indicated as a relative expression level compared with the NOR group.

In another assay the test system is intestinal microflora. In words: Intestinal microflora change analysis (16S rRNA sequencing of caecum). The conditions noted are these: photo-aging model, oral. From the text: The caecum of the mouse was harvested, and subjected to extraction using the i-genome clinic DNA extraction kit. The 16S rRNA library was constructed through the protocol of Illumina 16S V3˜V4 Amplicon (Illumina, San Diego, Calif., USA). The 16S rRNA V3-V4 region was amplified by the first polymerase chain reaction (PCR-1) using the DNA extract, and the PCR product was purified using Agencourt AMPure XP Beads (Beckman Coulter, Inc., Pasadena, Calif., USA), and the washed amplicons were quantified. The PCR product was used as a template for the second PCR (PCR-II) with Illumina dual index adapter sequence, and the final amplicon library was sequenced using the v3, 600 cycle kit and 301 base paired-end chemistry. Sequence data analysis was performed through QIIME 2 software, and then quality filtering was performed. […] The operational taxonomic units (OTUs) of the sequence were analyzed, and the alpha diversity analysis included the Richness, Shannon Index, and Abundance-based Coverage Estimator (ACE) indexes. […] The Kruskal-Wallis test was performed to analyze the diversity of the intestinal microflora and the difference in relative abundance, and the difference in beta diversity was analyzed by the ANOSIM and permutational multivariate analysis of variance (PERMANOVA) tests.

The subject of assay [1] is dorsal skin of the mice, irradiated with ultraviolet light. In words: Erythema value. The conditions noted are these: UVB-irradiated mice, oral 8 weeks, compared with CON; no significant difference. How it is done: (§3) A total of seven experimental groups (six animals per group) were defined as a normal control group (normal, not UVB-induced), a negative control group (control, UVB-irradiated), a GOS alone treatment group (GOS 200 mg/kg, UVB-irradiated) and a CTP alone treatment group (CTP 200 mg/kg, UVB-irradiated), a GOS/CTP 1:3 mixed treatment group (GOS/CTP 50:150 mg/kg, UVB-irradiated), a GOS/CTP 1:1 mixed treatment group (100:100 mg/kg, UVB-irradiated), and a GOS/CTP 3:1 mixed treatment group (GOS/CTP 150:50 mg/kg, UVB-irradiated).
(§4) The mice were acclimated for one week, and then photo-aging was induced in the mice of six groups except for the normal control group (NOR) by exposing their dorsal skin to ultraviolet light three times a week for 8 weeks through the ultraviolet irradiation device (BLX-E254, Vilber Lourmat, France) equipped with the UVB-ultraviolet lamp (T-8M; Vilber Lourmat, France) (Hong et al., 2015). As for the dosage of ultraviolet irradiation, the irradiation dosage inside the ultraviolet irradiation device was measured by the UV light meter (UV-340; Lutron, Taiwan) and adjusted, and then the UVB dosage was controlled as shown in Table 1. […]

The test system is the same in assay [2]. In words: Skin water-holding capacity (Multi Probe Adapter MPA 6). The conditions noted are these: UVB-irradiated mice, oral 8 weeks, compared with CON. As for the experimental part:
as §3, §4

Assay [3] in a line: Short-chain fatty acid (SCFA) analysis of caecum using GC. As for the experimental part:
The caecum of the mouse was harvested and extracted with methanol, and then the extract was analyzed for SCFA by using gas chromatography (Agilent Technologies, CA, USA) equipped with GC column (DB-FFAP 123-3253, 50 m×0.32 mm×[…]). The column temperature was set to be maintained at 100° C. for 1 minute, raised to 180° C. at a rate of 8° C./min, then raised to 200° C. at a rate of 20° C./min, and then stagnant at 200° C. for 5 min. The SCFA contents in the caecum were analyzed through the standard materials of acetic acid, propionic acid, and butyric acid.

Another assay deals with TIMP1. As to the kind of experiment: qRT-PCR of skin tissue, TIMP 1. The conditions noted are these: compared with CON. How it is done:
as §1, §2

In the case of collagen tripeptide [CTP], the “gene expression level of MMP 2” value with MMP2 is reported as “significantly decreased”. In the assay on intestinal microflora, the Firmicutes/Bacteroidetes ratio result is “tended to increase”. Also, the “change in erythema value before and after ultraviolet irradiation” value in assay [1] is recorded as “tended to decrease”. The “change in water-holding capacity before and after ultraviolet irradiation” value in assay [2] is “significantly increased”. In addition, the “content of butyric acid” value in assay [3] is “significantly increased”. Also, in assay [3] (compared with CON), the “content of valeric acid” value is on record as “significant increase” and the “total short-chain fatty acid content” value was “tendency of increase”. In addition, in assay [3] (compared with CON, no significant difference), the “content of propionic acid” value is “tended to increase”. In the assay on TIMP1, the “gene expression level of TIMP 1” value is recorded as “significantly increased”.
